How the values were obtained:
bedstraw = assay: Test B preemergence/postemergence greenhouse plant response rating 0 to 10; assay type: in vivo, Galium aparine; conditions: 0 to 10 scale
Summary of the method: (§1)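 Both application timings were run together: seeds got compound preemergence, and established seedlings (two to eighteen cm) got it postemergence. Non-phytotoxic solvent carried the chemical. Ratings are visual, versus controls, at twelve to sixteen days.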

lambsquarters = assay: as above; assay type: in vivo, Chenopodium album; conditions: 0 to 10 scale
Summary of the method: as §1

downy brome = assay: Test C preemergence/postemergence greenhouse plant response rating 0 to 100; assay type: in vivo, Bromus tectorum; conditions: for Plant response rating Downy Brome: 125 g/ha, 0 to 100 scale
Summary of the method: (§2)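 Compounds in non-phytotoxic solvent applied preemergence to sandy loam one day after planting, postemergence at the 1–4 leaf stage, or to ~2.5 cm floodwater over silt loam.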

barley = assay: Test B preemergence/postemergence greenhouse plant response rating 0 to 10; assay type: in vivo, Hordeum vulgare; conditions: 0 to 10 scale
Summary of the method: as §1

sorghum [1] = assay: Test C preemergence/postemergence greenhouse plant response rating 0 to 100; assay type: in vivo, Sorghum bicolor; conditions: for Plant response rating, Sorghum: 125 g/ha, 0 to 100 scale
Summary of the method: as §2

cotton = assay: Test B preemergence/postemergence greenhouse plant response rating 0 to 10; assay type: in vivo, Gossypium hirsutum; conditions: 0 to 10 scale
Summary of the method: as §1

wild oat = assay: Test C preemergence/postemergence greenhouse plant response rating 0 to 100; assay type: in vivo, Avena fatua; conditions: for Plant response rating, Wild oat: 125 g/ha, 0 to 100 scale
Summary of the method: as §2

crabgrass = assay: as above; assay type: in vivo, Digitaria sanguinalis; conditions: for Plant response rating, Crabgrass: 125 g/ha, 0 to 100 scale
Summary of the method: as §2

sorghum [2] = assay: Test B preemergence/postemergence greenhouse plant response rating 0 to 10; assay type: in vivo, Sorghum bicolor; conditions: 0 to 10 scale
Summary of the method: as §1

## Fc1cc(Cl)ccc1-c1nn2c(c1Br)CCCC2 [Compound 52]
bedstraw; POSTEMERGENCE, Rate 200 g/ha
  Plant response rating, Bedstraw: 10
bedstraw; PREEMERGENCE, Rate 50 g/ha
  Plant response rating, Bedstraw: 5
bedstraw; Rate 200 g/ha, PREEMERGENCE
  Plant response rating, Bedstraw: 7
lambsquarters; POSTEMERGENCE, Rate 50 g/ha
  Plant response rating, Lambsquarter: 9
lambsquarters; PREEMERGENCE, Rate 50 g/ha
  Plant response rating, Lambsquarter: 10
lambsquarters; Rate 200 g/ha, POSTEMERGENCE
  Plant response rating, Lambsquarter: 10
lambsquarters; Rate 200 g/ha, PREEMERGENCE
  Plant response rating, Lambsquarter: 10
Downy brome; POSTEMERGENCE
  Plant response rating Downy Brome: 90
Downy brome; POSTEMERGENCE, Rate 2 g/ha
  Plant response rating (0 to 100), Downy Brome: 10
Downy brome; PREEMERGENCE
  Plant response rating Downy Brome: 50
Downy brome; PREEMERGENCE, Rate 2 g/ha
  Plant response rating (0 to 100), Downy Brome: 0
Downy brome; Rate 8 g/ha, POSTEMERGENCE
  Plant response rating (0 to 100), Downy Brome: 20
Downy brome; Rate 8 g/ha, PREEMERGENCE
  Plant response rating (0 to 100), Downy Brome: 0
Downy brome; Rate 31 g/ha, POSTEMERGENCE
  Plant response rating (0 to 100), Downy Brome: 50
Downy brome; Rate 31 g/ha, PREEMERGENCE
  Plant response rating (0 to 100), Downy Brome: 0
barley; POSTEMERGENCE, Rate 50 g/ha
  Plant response rating, Barley: 5
barley; POSTEMERGENCE, Rate 200 g/ha
  Plant response rating, Barley: 7
barley; PREEMERGENCE, Rate 50 g/ha
  Plant response rating, Barley: 2
barley; Rate 200 g/ha, PREEMERGENCE
  Plant response rating, Barley: 3
Sorghum [1]; POSTEMERGENCE
  Plant response rating, Sorghum: 60
Sorghum [1]; POSTEMERGENCE, Rate 2 g/ha
  Plant response rating (0 to 100), Sorghum: 30
Sorghum [1]; PREEMERGENCE
  Plant response rating, Sorghum: 10
Sorghum [1]; PREEMERGENCE, Rate 2 g/ha
  Plant response rating (0 to 100), Sorghum: 0
Sorghum [1]; Rate 8 g/ha, POSTEMERGENCE
  Plant response rating (0 to 100), Sorghum: 40
Sorghum [1]; Rate 8 g/ha, PREEMERGENCE
  Plant response rating (0 to 100), Sorghum: 0
Sorghum [1]; Rate 31 g/ha, POSTEMERGENCE
  Plant response rating (0 to 100), Sorghum: 50
Sorghum [1]; Rate 31 g/ha, PREEMERGENCE
  Plant response rating (0 to 100), Sorghum: 0
cotton; POSTEMERGENCE, Rate 50 g/ha
  Plant response rating, Cotton: 10
cotton; POSTEMERGENCE, Rate 200 g/ha
  Plant response rating, Cotton: 10
cotton; PREEMERGENCE, Rate 50 g/ha
  Plant response rating, Cotton: 0
cotton; Rate 200 g/ha, PREEMERGENCE
  Plant response rating, Cotton: 3
Wild oat; POSTEMERGENCE
  Plant response rating, Wild oat: 60
Wild oat; POSTEMERGENCE, Rate 2 g/ha
  Plant response rating (0 to 100), Wild oat: 10
Wild oat; PREEMERGENCE
  Plant response rating, Wild oat: 20
Wild oat; PREEMERGENCE, Rate 2 g/ha
  Plant response rating (0 to 100), Wild oat: 0
Wild oat; Rate 8 g/ha, POSTEMERGENCE
  Plant response rating (0 to 100), Wild oat: 20
Wild oat; Rate 8 g/ha, PREEMERGENCE
  Plant response rating (0 to 100), Wild oat: 0
Wild oat; Rate 31 g/ha, POSTEMERGENCE
  Plant response rating (0 to 100), Wild oat: 30
Wild oat; Rate 31 g/ha, PREEMERGENCE
  Plant response rating (0 to 100), Wild oat: 0
crabgrass; POSTEMERGENCE
  Plant response rating, Crabgrass: 70
crabgrass; POSTEMERGENCE, Rate 2 g/ha
  Plant response rating (0 to 100), Crabgrass: 10
crabgrass; PREEMERGENCE
  Plant response rating, Crabgrass: 80
crabgrass; PREEMERGENCE, Rate 2 g/ha
  Plant response rating (0 to 100), Crabgrass: 0
crabgrass; Rate 8 g/ha, POSTEMERGENCE
  Plant response rating (0 to 100), Crabgrass: 30
crabgrass; Rate 8 g/ha, PREEMERGENCE
  Plant response rating (0 to 100), Crabgrass: 0
crabgrass; Rate 31 g/ha, POSTEMERGENCE
  Plant response rating (0 to 100), Crabgrass: 40
crabgrass; Rate 31 g/ha, PREEMERGENCE
  Plant response rating (0 to 100), Crabgrass: 10
Sorghum [2]; POSTEMERGENCE, Rate 50 g/ha
  Plant response rating, Sorghum: 4
Sorghum [2]; PREEMERGENCE, Rate 50 g/ha
  Plant response rating, Sorghum: 2
Sorghum [2]; Rate 200 g/ha, POSTEMERGENCE
  Plant response rating, Sorghum: 7
Sorghum [2]; Rate 200 g/ha, PREEMERGENCE
  Plant response rating, Sorghum: 3

— patent US6358885B1, “Substituted phenylheterocyclic herbicides” (Mississippi State University, priority 1992, dated 2002)
